Measured values as given in US20030139373A1, “Method for cancer therapy” (priority 2001, published 2003).

Columns and labels:
[1] = system: A549 NSCLC Xenograft; assay: A549 NSCLC xenograft model, efficacy (tumor growth inhibition); assay type: in vivo, mice; conditions: single agent
Source text: For implantation in mice, A549 cells were dislodged with trypsin-EDTA, washed with 1×D-PBS, and resuspended in serum-free media. […] Tumors were allowed to establish until they were palpable and of an appropriate tumor volume (based on previous tumorigenicity studies) before initiation of treatment. Animals were randomly assigned to groups according to initial tumor volume, and the day of tumor cell inoculation was considered to be study day 0. […] The solution was then evaporated and lyophilized. […] Efficacy data was graphically represented as the mean tumor volume ±standard error of the mean (SEM). Tumor volumes of treated groups were presented as percentages of tumor volumes of the control groups (%T/C), using the formula: 100×((T-T0)/(C-C0)), where 'T' represented mean tumor volume of a treated group on a specific day during the experiment, 'T0' represented mean tumor volume of the same treated group on the first day of treatment; 'C' represented mean tumor volume of a control group on a specific day during the experiment, and C0' represented mean tumor volume of the same […] 'D' represents the large diameter of the tumor, and 'd' represents the small diameter. In some cases, tumor regression and/or percent change in tumor volume was calculated using the formula: Statistical analysis was determined by the rank sum test (SigmaStat, v.2.0, Jandel Scientific, San Francisco, Calif.).

[2] = A549 NSCLC xenograft model, toxicity (body weight, deaths); conditions: single agent
Source text: Female BALB/c nu/nu mice were obtained from Charles River Laboratories (Wilmington, Mass.). The mice were housed in an AALAC approved facility and received standard care in accordance with institutional policy (fully compliant with both NIH and Roche Animal Care and Use Committee guidelines).
Compound II was microprecipitated with an ionic polymer, Eudragit L-100-55, using a solvent extraction method. Eudragit L100-55 (described in USP/NF as “Methacrylic Acid Copolymer”) is an anionic copolymer based on methacrylic acid and ethyl acrylate. The ratio of drug to polymer in the final formulation was 50% w/w Compound II and 50% w/w Eudragit L100-55. For oral administration, the formulated Compound II or pure Eudragit L100-55 (administered to vehicle control groups) was suspended in 0.2% CMC (carboxy-methyl cellulose) solution (Aqualon Hercules, Inc., Parlin, N.J.). The CMC solution was added immediately prior to dosing to animals. Gemzar® (Lilly, Indianapolis, Ind.) was applied to a 40 micron high performance Whatman C-18 column. The column was eluted at 60 ml/min for 50 minutes with water, followed by elution with 40% CH3CN/water until UV clear. The solution was then evaporated and lyophilized.
Weight loss was graphically represented as percent change in mean group body weight, using the formula: […]
where ‘W’ represents mean body weight of the treated group at a particular day, and ‘W0’ represents mean body weight of the same treated group at initiation of treatment.

[3] = system: H1299 cells; assay: Tetrazolium dye (MTT) proliferation assay, H1299; assay type: cell-based; conditions: Homo sapiens, NCI-H1299; MTT assay using H1299 cells
Procedure: H1299 cells were obtained from the National Cancer Institute. A549 cells were purchased from ATCC. The cells were grown in a subconfluent condition to maintain a logarithmic growth phase. The cells were dislodged for passage using trypsin-EDTA (0.05% and 0.53 mM, respectively).
Cellular proliferation was evaluated by the tetrazolium dye assay. Cells from exponentially growing cultures were plated at the appropriate seeding density in the optimal medium to give logarithmic growth over the course of the assay. Plates were incubated overnight at 37° C. in a humidified CO2 atmosphere to allow for recovery from trypsinization before beginning the assay. […] The plates were returned to 37° C. and assayed for proliferation by MTT (3-(4,5-dimethyl-thiazole-2-yl)-2,5-diphenyl-2H-tetrazolium bromide at time points that would allow for at least three population doublings in the untreated control cultures. MTT was added to each well to yield a final concentration of 1 mg/ml and the plates were returned to 37° C. for 2.5 hours. Following incubation, the MTT-containing medium was removed by aspiration and the resulting formazan metabolite was solubilized in 50 μl ethanol. Absorbances were read at a wavelength of 570 nm with a 650 nm reference. Percent inhibition was calculated using the formula: [formula]

Cn1cc(C2=C(c3cn(C)c4cc([N+](=O)[O-])ccc34)C(=O)NC2=O)c2ccccc21 [Compound II]
Tumor Volume (Mean ± SEM) (Day 30) ([1]; CII 50 mg/kg PO): 104 ± 18 mm3
% T/C (Day 47) ([1]; CII 50 mg/kg PO): 50%
Tumor Volume (Mean ± SEM) (Day 47) ([1]; CII 50 mg/kg PO): 217 ± 32 mm3
Tumor Volume (Mean ± SEM) (Day 30) ([1]; CII 100 mg/kg PO): 148 ± 28 mm3
% T/C (Day 47) ([1]; CII 100 mg/kg PO): 29%
Tumor Volume (Mean ± SEM) (Day 47) ([1]; CII 100 mg/kg PO): 213 ± 35 mm3
Tumor Volume (Mean ± SEM) (Day 30) ([1]; CII 200 mg/kg PO): 99 ± 17 mm3
% T/C (Day 47) ([1]; CII 200 mg/kg PO): 18%
Tumor Volume (Mean ± SEM) (Day 47) ([1]; CII 200 mg/kg PO): 141 ± 21 mm3
Drug Related Deaths ([2]; CII 50 mg/kg PO): 0%
Drug Related Deaths ([2]; CII 100 mg/kg PO): 0%
Drug Related Deaths ([2]; CII 200 mg/kg PO): 0%

Nc1ccn([C@@H]2O[C@H](CO)[C@@H](O)C2(F)F)c(=O)n1 [Gemcitabine, gemcitabine]
IC50 [3]: 3.8 nM
IC90 [3]: 6 nM
Tumor Volume (Mean ± SEM) (Day 30) ([1]; G 30 mg/kg IP): 97 ± 15 mm3
% T/C (Day 47) ([1]; G 30 mg/kg IP): 72%
Tumor Volume (Mean ± SEM) (Day 47) ([1]; G 30 mg/kg IP): 210 ± 44 mm3
Tumor Volume (Mean ± SEM) (Day 30) ([1]; G 60 mg/kg IP): 111 ± 17 mm3
% T/C (Day 47) ([1]; G 60 mg/kg IP): 49%
Tumor Volume (Mean ± SEM) (Day 47) ([1]; G 60 mg/kg IP): 188 ± 27 mm3
Tumor Volume (Mean ± SEM) (Day 30) ([1]; G 120 mg/kg IP): 98 ± 20 mm3
% T/C (Day 47) ([1]; G 120 mg/kg IP): 61%
Tumor Volume (Mean ± SEM) (Day 47) ([1]; G 120 mg/kg IP): 193 ± 36 mm3
Drug Related Deaths ([2]; G 30 mg/kg IP): 0%
Drug Related Deaths ([2]; G 60 mg/kg IP): 0%
Drug Related Deaths ([2]; G 120 mg/kg IP): 0%
